Measured values taken from patent US11779530B2, “Composition for the permanent deformation of hair having reduced odor” (Noxell Corporation, priority 2016, dated 2023).

assay: distribution coefficient log P (octanol/water) of raw materials; format: physicochemical; conditions: raw material of one-component malodor suppressant system
Excerpt: In the fields of organic and medicinal chemistry, a distribution (P) coefficient is the ratio of concentrations of a compound in the two phases of a mixture of two immiscible solvents at equilibrium. […] One of the solvents chosen is water while the second is octanol. […] The partition coefficient is the ratio of concentrations of un-ionized compound between the two solutions. The logarithm of the ratio of the concentrations of the un-ionized solute in the solvents is called log P:
[formula] The log P (octanol/water) is referred hereinafter as “log P”, unless otherwise specified.

Molecule | log P (octanol/water)
CC1COCc2cc3c(cc21)C(C)(C)C(C)C3(C)C (stereo not drawn) [S3, Galaxolide] | 5.93
Operanide [S4] | 4.90
CCCCCCCCCCCCCC(=O)OC(C)C [S1, isopropylmyristate] | 7.41
